Source: patent US12338262B2 (Forward Therapeutics, Inc., priority 2022, dated 2025)

Each compound was assayed against TNF-α (Homo sapiens, UniProt P01375) (assay: TNF-α Induced HEK Blue Cellular Assay). Settings: HEK Blue TNFα reporter cells, TNF-α 100 pg/ml, 24 hrs at 37° C., secreted alkaline phosphatase (QUANTI-Blue, 620 nm).
Type: cell-based
Procedure, shortened: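 Read-out is SEAP via QUANTI-Blue absorbance at 620 nm after a 24 h, 37 °C incubation of reporter HEK Blue cells with 100 pg/ml TNF-α plus compound at final […]–0.5 nM. Percent inhibition normalised to DMSO ± stimulation; 4-parameter logistic fit gives IC50.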

TNF-α, sequence (P01375 77-233 limits assumed): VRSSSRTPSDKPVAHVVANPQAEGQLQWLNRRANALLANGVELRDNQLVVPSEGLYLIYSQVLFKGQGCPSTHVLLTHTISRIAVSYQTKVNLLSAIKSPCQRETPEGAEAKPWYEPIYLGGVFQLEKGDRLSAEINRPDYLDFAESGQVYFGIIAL

Structure (SMILES) | IC50 [µM]
CC[C@H](Nc1c(Cl)c(C)nc2cc(F)c(-c3ccc(P(C)(C)=O)nc3)nc12)c1cccc(F)c1F [Example 96, (S)-(5-(7-chloro-8-((1-(2,3-difluorophenyl)propyl)amino)-3-fluoro-6-methyl-1,5-naphthyridin-2-yl)pyridin-2-yl)dimethylphosphine oxide] | ≤ 0.1
Cc1nc2cc(F)c(-c3ccc(P(C)(C)=O)nc3)nc2c(N[C@H](C)c2cc(F)cc(C#N)c2)c1Cl [Example 99, 3-[(1R)-1-({3-chloro-6-[6-(dimethylphosphoryl)pyridin-3-yl]-7-fluoro-2-methyl-1,5-naphthyridin-4-yl}amino)ethyl]-5-fluorobenzonitrile] | ≤ 1
Cc1nc2cc(F)c(-c3ccc(P(C)(C)=O)nc3)nc2c(N[C@H](C)c2cccc(C#N)c2)c1Cl [Example 43, 3-[(1R)-1-({3-chloro-6-[6-(dimethylphosphoryl)pyridin-3-yl]-7-fluoro-2-methyl-1,5-naphthyridin-4-yl}amino)ethyl]benzonitrile] | ≤ 0.1
Cc1nc2cc(F)c(-c3ccc(P(C)(C)=O)nc3)cc2c(N[C@H](C)c2ccccc2F)c1Cl [Example 19, 3-chloro-6-[6-(dimethylphosphoryl)pyridin-3-yl]-7-fluoro-N-[(1R)-1-(2-fluorophenyl)ethyl]-2-methylquinolin-4-amine] | ≤ 0.1
Cc1nc2cc(F)c(-c3cnc(P(C)(C)=O)nc3)cc2c(N[C@H](C)c2ccccc2F)c1Cl [Example 11, 3-chloro-6-[2-(dimethylphosphoryl)pyrimidin-5-yl]-7-fluoro-N-[(1R)-1-(2-fluorophenyl)ethyl]-2-methylquinolin-4-amine] | ≤ 0.1
Cc1nc2cc(F)c(-c3ccc(P(C)(C)=O)nc3)nc2c(NC(c2ncccc2F)C2CC2)c1Cl (stereo not drawn) [Example 136, 3-chloro-N-[cyclopropyl(3-fluoropyridin-2-yl)methyl]-6-[6-(dimethylphosphoryl)pyridin-3-yl]-7-fluoro-2-methyl-1,5-naphthyridin-4-amine] | ≤ 1
CC[C@H](Nc1c(Cl)c(C)nc2cc(F)c(-c3cnc(OCP(C)(C)=O)nc3)nc12)c1cccc(F)c1F [Example 126, 3-chloro-N-[(1S)-1-(2,3-difluorophenyl)propyl]-6-{2-[(dimethylphosphoryl)methoxy]pyrimidin-5-yl}-7-fluoro-2-methyl-1,5-naphthyridin-4-amine] | ≤ 0.1
Cc1nc2cc(F)c(-c3ccc(P(C)(C)=O)nc3)c(F)c2c(N[C@H](C)c2ccccc2F)c1Cl [Example 72, 3-chloro-6-[6-(dimethylphosphoryl)pyridin-3-yl]-5,7-difluoro-N-[(1R)-1-(2-fluorophenyl)ethyl]-2-methylquinolin-4-amine] | ≤ 1
Cc1nc2cc(F)c(-c3ccc(P(C)(C)=O)nc3)nc2c(N[C@@H](c2cc(F)cc(F)c2)C2CC2)c1Cl [Example 138, 3-chloro-N—[(R)-cyclopropyl(3,5-difluorophenyl)methyl]-6-[6-(dimethylphosphoryl)pyridin-3-yl]-7-fluoro-2-methyl-1,5-naphthyridin-4-amine] | ≤ 1
Cc1cn(-c2ccc(F)c([C@@H](C)Nc3c(Cl)c(C)nc4cc(F)c(-c5ccc(P(C)(C)=O)nc5)nc34)c2)cn1 [Example 66, 3-chloro-6-[6-(dimethylphosphoryl)pyridin-3-yl]-7-fluoro-N-[(1R)-1-[2-fluoro-5-(4-methylimidazol-1-yl)phenyl]ethyl]-2-methyl-1,5-naphthyridin-4-amine] | ≤ 1
Cc1nc2cc(F)c(-c3cnc(P(C)(C)=O)c(F)c3)nc2c(N[C@H](C)c2cccc(F)c2F)c1Cl [Example 107, 3-chloro-N-[(1R)-1-(2,3-difluorophenyl)ethyl]-6-[6-(dimethylphosphoryl)-5-fluoropyridin-3-yl]-7-fluoro-2-methyl-1,5-naphthyridin-4-amine] | ≤ 1
CC[C@H](Nc1c(Cl)c(C)nc2cc(F)c(-c3cnc(P(C)(C)=O)nc3)nc12)c1ncccc1F [Example 132, 3-chloro-6-[2-(dimethylphosphoryl)pyrimidin-5-yl]-7-fluoro-N-[(1S)-1-(3-fluoropyridin-2-yl)propyl]-2-methyl-1,5-naphthyridin-4-amine] | ≤ 1
COc1cc([C@@H](C)Nc2c(Cl)c(C)nc3cc(F)c(-c4ccc(P(C)(C)=O)nc4)nc23)ccn1 [Example 81, 3-chloro-6-[6-(dimethylphosphoryl)pyridin-3-yl]-7-fluoro-N-[(1R)-1-(2-methoxypyridin-4-yl)ethyl]-2-methyl-1,5-naphthyridin-4-amine] | 10 to 30
CC[C@H](Nc1c(Cl)c(C)nc2cc(F)c(-c3ccc(P(C)(C)=O)nc3)nc12)c1ccccn1 [Example 76, 3-chloro-6-[6-(dimethylphosphoryl)pyridin-3-yl]-7-fluoro-2-methyl-N-[(1S)-1-(pyridin-2-yl)propyl]-1,5-naphthyridin-4-amine] | ≤ 0.1
CC[C@@H](Nc1c(Cl)c(C)nc2cc(F)c(-c3ccc(P(C)(C)=O)nc3)nc12)c1cc(C#N)ccc1F [Example 20, 3-[(1R)-1-({3-chloro-6-[6-(dimethylphosphoryl)pyridin-3-yl]-7-fluoro-2-methyl-1,5-naphthyridin-4-yl}amino)propyl]-4-fluorobenzonitrile] | ≤ 0.1
Cc1nc2cc(F)c(-c3cnc(OCP(C)(C)=O)nc3)nc2c(N[C@H](C)c2cccc(F)c2F)c1Cl [Example 124, 3-chloro-N-[(1R)-1-(2,3-difluorophenyl)ethyl]-6-{2-[(dimethylphosphoryl)methoxy]pyrimidin-5-yl}-7-fluoro-2-methyl-1,5-naphthyridin-4-amine] | ≤ 1
Cc1nc2cc(F)c(-c3ccc(P(C)(C)=O)nc3)nc2c(N[C@H](c2cc(C#N)ccc2F)C(F)F)c1Cl [Example 35, (R)-3-(1-((3-chloro-6-(6-(dimethylphosphoryl)pyridin-3-yl)-7-fluoro-2-methyl-1,5-naphthyridin-4-yl)amino)-2,2-difluoroethyl)-4-fluorobenzonitrile] | ≤ 1
Cc1nc2cc(F)c(-c3ccc(P(C)(C)=O)nc3)cc2c(N[C@H](C)c2cccc(F)c2F)c1Cl [Example 67, 3-chloro-N-[(1R)-1-(2,3-difluorophenyl)ethyl]-6-[6-(dimethylphosphoryl)pyridin-3-yl]-7-fluoro-2-methylquinolin-4-amine] | ≤ 0.1
Cc1nc2cc(F)c(-c3ccc(P(C)(C)=O)nc3)nc2c(N[C@H](C)c2cccc(Cl)c2)c1Cl [Example 91, 3-chloro-N-[(1R)-1-(3-chlorophenyl)ethyl]-6-[6-(dimethylphosphoryl)pyridin-3-yl]-7-fluoro-2-methyl-1,5-naphthyridin-4-amine] | ≤ 0.1
Cc1nc2cc(F)c(-c3ccc(P(C)(C)=O)nc3)nc2c(N[C@H](C)c2ccccc2)c1Cl [Example 90, 3-chloro-6-[6-(dimethylphosphoryl)pyridin-3-yl]-7-fluoro-2-methyl-N-[(1R)-1-phenylethyl]-1,5-naphthyridin-4-amine] | ≤ 0.1
Cc1nc2cc(F)c(-c3ccc(P(C)(C)=O)nc3)nc2c(N[C@H](c2cc(F)cc(F)c2)C2CC2)c1Cl [Example 139, 3-chloro-N—[(S)-cyclopropyl(3,5-difluorophenyl)methyl]-6-[6-(dimethylphosphoryl)pyridin-3-yl]-7-fluoro-2-methyl-1,5-naphthyridin-4-amine] | ≤ 1
